Measurements reported in patent US20220315554A1, “COMPOUNDS COMPRISING A […] LIGAND AND USE THEREOF” (priority 2019, published 2022).
Numbered stars: 1 amine (or outer) side, 2 acyl side, 3 side chain; on linkers, the order of the positions; unused ones are H or OH. Bridge positions count the residues as written; N and C are the ends. Square brackets hold non-standard residues; d marks the D form. Peptide text beside a SMILES is read from it. ξ: configuration not given here. mXylylene = c1cc(C[*:1])cc(C[*:2])c1; 4Pal = N[C@@H](Cc1ccncc1)C(=O)O; ξM = CSCCC(N)C(=O)O

Tests used:
[1] = Plasma stability assay, mouse plasma; assay type: in vitro ADME; settings: 4 h incubation, 37° C., read-out: % intact compound remaining after incubation, Mouse plasma
[2] = molecular target: T1, FAP-expressing human WI-38 fibroblasts (Homo sapiens, UniProt Q12884); assay: Competitive FACS binding assay; settings: pIC50 Category (FACS), competition with 3 nM Cy5-labeled compound, WI-38 fibroblasts, 4° C., 1 hour
T1 construct: FAP-expressing human WI-38 fibroblasts (ECACC) were cultured in EMEM; host or cells: WI-38 human fibroblasts
T1 sequence (Q12884 1-760): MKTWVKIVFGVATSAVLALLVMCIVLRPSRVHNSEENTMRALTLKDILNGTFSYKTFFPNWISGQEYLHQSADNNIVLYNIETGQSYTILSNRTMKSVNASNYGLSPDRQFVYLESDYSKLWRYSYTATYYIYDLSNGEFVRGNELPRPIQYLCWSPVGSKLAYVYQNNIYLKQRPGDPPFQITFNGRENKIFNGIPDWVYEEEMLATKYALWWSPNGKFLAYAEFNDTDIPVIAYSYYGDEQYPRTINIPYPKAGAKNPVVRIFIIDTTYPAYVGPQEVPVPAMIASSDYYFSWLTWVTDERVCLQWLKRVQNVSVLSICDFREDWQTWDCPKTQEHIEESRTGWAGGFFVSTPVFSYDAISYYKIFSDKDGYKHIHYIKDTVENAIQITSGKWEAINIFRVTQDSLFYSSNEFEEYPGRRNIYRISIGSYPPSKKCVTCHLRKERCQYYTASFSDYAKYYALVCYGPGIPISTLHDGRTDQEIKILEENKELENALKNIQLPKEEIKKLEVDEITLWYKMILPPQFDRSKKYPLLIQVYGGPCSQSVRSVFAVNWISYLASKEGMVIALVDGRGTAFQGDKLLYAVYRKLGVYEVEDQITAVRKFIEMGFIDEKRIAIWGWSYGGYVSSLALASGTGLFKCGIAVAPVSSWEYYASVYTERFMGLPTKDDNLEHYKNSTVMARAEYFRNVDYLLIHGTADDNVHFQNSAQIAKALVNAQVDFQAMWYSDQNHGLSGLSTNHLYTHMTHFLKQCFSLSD
Procedure: Cells were analyzed in an Attune NxT flow cytometer. […]

Human recombinant FAP = molecular target: T2, Human recombinant FAP (Homo sapiens, UniProt Q12884); assay: FRET-based FAP protease activity assay; assay type: biochemical; set-up: purchased R&D systems 3715-SE; settings: pIC50 Category (Activity), recombinant human FAP, FRET substrate, 37° C.
T2 sequence (Q12884 1-760): T1 sequence (Q12884 1-760)

Structure (SMILES)	remaining at 4 h, 9.8 µM [1] [%]	IC50 [2] [nM]	IC50 (Human recombinant FAP) [nM]
CSCC[C@H](NC(C)=O)C(=O)N[C@H]1CSCc2cccc(c2)CSC[C@@H](C(=O)N[C@@H](CC(=O)O)C(=O)N[C@@H](Cc2c[nH]cn2)C(=O)N[C@@H](Cc2ccncc2)C(=O)N[C@@H](CCCNC(=N)N)C(=O)N[C@@H](CC(=O)O)C(N)=O)NC(=O)[C@H](Cc2ccccc2)NC(=O)[C@H](CCC(=O)O)NC(=O)[C@H]([C@@H](C)O)NC(=O)[C@@H]2CCCN2C(=O)[C@@H]2CCCN2C1=O [3BP-3191, Ac-Met-[Cys(3MeBn)-Pro-Pro-Thr-Glu-Phe-Cys]-Asp-His-Ppa-Arg-Asp-NH2] (Ac-MCPPTEFCDH[4Pal]RD-NH2; linker 2-8 via mXylylene)	100	< 10	< 10
CSCCC(N)C(=O)N[C@H]1CSCc2cccc(c2)CSC[C@@H](C(=O)N[C@@H](CC(=O)O)C(=O)N[C@@H](Cc2c[nH]cn2)C(=O)N[C@@H](Cc2ccccc2)C(=O)N[C@@H](CCCNC(=N)N)C(=O)N[C@@H](CC(=O)O)C(N)=O)NC(=O)[C@H](Cc2ccccc2)NC(=O)[C@H](CCC(=O)O)NC(=O)[C@H]([C@@H](C)O)NC(=O)[C@@H]2CCCN2C(=O)[C@@H]2CCCN2C1=O (stereo partly drawn) [3BP-2976, H-met-[Cys(3MeBn)-Pro-Pro-Thr-Glu-Phe-Cys]-Asp-His-Phe-Arg-Asp-NH2] (H-[ξM]CPPTEFCDHFRD-NH2; linker 2-8 via mXylylene)	93	< 10	< 10
CSCC[C@H](NC(C)=O)C(=O)N[C@H]1CSCc2cccc(c2)CSC[C@@H](C(=O)N[C@@H](CC(=O)O)C(=O)N[C@H](Cc2c[nH]cn2)C(=O)N[C@@H](Cc2ccccc2)C(=O)N[C@@H](CCCNC(=N)N)C(=O)N[C@@H](CC(=O)O)C(N)=O)NC(=O)[C@H](Cc2ccccc2)NC(=O)[C@H](CCC(=O)O)NC(=O)[C@H]([C@@H](C)O)NC(=O)[C@@H]2CCCN2C(=O)[C@@H]2CCCN2C1=O [3BP-3210, Ac-Met-[Cys(3MeBn)-Pro-Pro-Thr-Glu-Phe-Cys]-Asp-his-Phe-Arg-Asp-NH2] (Ac-MCPPTEFCD[dH]FRD-NH2; linker 2-8 via mXylylene)	100	< 10	< 10

Results, then the compound that gave them:

remaining at 4 h, 9.8 µM [1] [%]	IC50 [2] [nM]	IC50 (Human recombinant FAP) [nM]	Structure (SMILES)
87	< 10	< 10	CSCC[C@H](NC(C)=O)C(=O)N[C@H]1CSCc2cccc(c2)CSC[C@@H](C(=O)N[C@@H](CC(=O)O)C(=O)N[C@@H](Cc2c[nH]cn2)C(=O)N[C@@H](C)C(=O)N[C@@H](CCCNC(=N)N)C(=O)N[C@@H](CC(=O)O)C(N)=O)NC(=O)[C@H](Cc2ccccc2)NC(=O)[C@H](CCC(=O)O)NC(=O)[C@H]([C@@H](C)O)NC(=O)[C@@H]2CCCN2C(=O)[C@@H]2CCCN2C1=O [3BP-3196, Ac-Met-[Cys(3MeBn)-Pro-Pro-Thr-Glu-Phe-Cys]-Asp-His-Ala-Arg-Asp-NH2] (Ac-MCPPTEFCDHARD-NH2; linker 2-8 via mXylylene)
80	< 10	< 10	CSCC[C@H](NC(C)=O)C(=O)N[C@H]1CSCc2cccc(c2)CSC[C@@H](C(=O)N[C@@H](CC(=O)O)C(=O)N[C@@H](Cc2c[nH]cn2)C(=O)N[C@@H](Cc2ccccc2)C(=O)N[C@H](CCCNC(=N)N)C(=O)N[C@@H](CC(=O)O)C(N)=O)NC(=O)[C@H](Cc2ccccc2)NC(=O)[C@H](CCC(=O)O)NC(=O)[C@H]([C@@H](C)O)NC(=O)[C@@H]2CCCN2C(=O)[C@@H]2CCCN2C1=O [3BP-3212, Ac-Met-[Cys(3MeBn)-Pro-Pro-Thr-Glu-Phe-Cys]-Asp-His-Phe-arg-Asp-NH2] (Ac-MCPPTEFCDHF[dR]D-NH2; linker 2-8 via mXylylene)
